Assay results as given in US10363257B2 (ZENITH EPIGENETICS LTD., priority 2013, dated 2019).

Columns and labels:
[1] = system: MV4-11 cells; experiment: In vivo efficacy in athymic nude mouse acute myeloid leukemia xenograft model using MV4-11 cells; details: MV4-11 AML xenograft, oral, 75 mg/kg b.i.d and 120 mg/kg b.i.d
Protocol: MV4-11 cells (ATCC) are grown under standard cell culture conditions and (NCr) nu/nu fisol strain of female mice age 6-7 weeks are injected with 5×10^6 cells/animal in 100 μL PBS+100 μL Matrigel in the lower left abdominal flank. By approximately day 18 after MV4-11 cells injection, mice are randomized based on tumor volume (L×W×H)/2) of average ˜120 mm^3. Mice are dosed orally with compound at 75 mg/kg b.i.d and 120 mg/kg b.i.d in EA006 formulation at 10 mL/kg body weight dose volume. Tumor measurements are taken with electronic micro calipers and body weights measured on alternate days beginning from dosing period. The average tumor volumes, percent Tumor Growth Inhibition (TGI) and % change in body weights are compared relative to Vehicle control animals. The means, statistical analysis and the comparison between groups are calculated using Student's t-test in Excel.

[2] = In vivo efficacy in experimental autoimmune encephalomyelitis (EAE) model of MS; design: species or system mouse; details: EAE mice (MOG35-55/CFA, female C57Bl/6), 50 to 125 mg/kg b.i.d. from time of immunization
Excerpt: Experimental autoimmune encephalomyelitis (EAE) is a T-cell-mediated autoimmune disease of the CNS which shares many clinical and histopathological features with human multiple sclerosis (MS). EAE is the most commonly used animal model of MS. […] Cytokines IL-23, IL-6 and IL-17, which are either critical for Th1 and Th17 differentiation or produced by these T cells, play a critical and non-redundant role in EAE development. Therefore, drugs targeting production of these cytokines are likely to have therapeutic potential in treatment of MS.
Compounds of Formula I or la were administered at 50 to 125 mg/kg b.i.d. from time of immunization to EAE mice to assess anti-inflammatory activity. In this model, EAE is induced by MOG35-55/CFA immunization and pertussis toxin injection in female C57BI/6 mice.

[3] = system: hApoA-1 mRNA; experiment: Up-regulation of hApoA-1 mRNA transcription in Huh7 cells; assay type: cell-based, human; details: EC170, Huh7 cells, 48 h treatment, ApoA-I mRNA
Protocol: In this example, ApoA-I mRNA in tissue culture cells was quantitated to measure the transcriptional up-regulation of ApoA-I when treated with a compound of the invention.
Huh7 cells (2.5×10^5 per well) were plated in a 96-well plate using 100 μL DMEM per well, (Gibco DMEM supplemented with penicillin/streptomycin and 10% FBS), 24 h before the addition of the compound of interest. After 48 h treatment, the spent media was removed from the Huh-7 cells and placed on ice (for immediate use) or at −80° C. (for future use) with the “LDH cytotoxicity assay Kit II” from Abcam. The cells remaining in the plate were rinsed with 100 μL PBS.
Then 85 μL of cell lysis solution was added to each well and incubated for 5-10 min at room temperature, to allow for complete cell lysis and detachment. mRNA was then prepared using the “mRNA Catcher PLUS plate” from Life Technologies, according to the protocol supplied. After the last wash, as much wash buffer as possible was aspirated without allowing the wells to dry. […]
The eluted mRNA isolated was then used in a one-step real-time PCR reaction, using components of the Ultra Sense Kit together with Life Technologies primer-probe mixes. Real-time PCR data was analyzed, using the Ct values, to determine the fold induction of each unknown sample, relative to the control (that is, relative to the control for each independent DMSO concentration).

[4] = system: hIL-6 mRNA; experiment: Inhibition of hIL-6 mRNA transcription in LPS-stimulated U937 cells; assay type: cell-based; details: Homo sapiens, U-937; PMA-differentiated U937 cells, 1 h pretreatment, 1 ug/mL LPS stimulation, 3 h; read-out: IL-6 activity (Inhibition of hIL-6 mRNA Transcription)
Procedure, shortened: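 U937 cells differentiated 3 days with 60 ng/mL PMA, pretreated 1 h with compound (0.1% DMSO), then stimulated with 1 ug/mL E. coli LPS for 3 h at 37 °C. hIL-6 mRNA measured by one-step TaqMan RT-qPCR, normalized to cyclophilin. Fold expression relative to control; triplicate wells.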

## Cc1noc(C)c1-c1cc(N)c2ncn(Cc3ccccc3)c2c1 [Example Compound 7, 1-Benzyl-6-(3,5-dimethylisoxazol-4-yl)-1H-benzo[d]imidazol-4-amine]
[1]
  In vivo activity: Active
[2]
  In vivo activity: Active
[3]
  ApoA-1 activity: +++ (EC170 value less than or equal to 0.3 μM were deemed to be highly active (+++))
[4]
  IC50: ≤ 300 nM
